{
  "source": "patent US20230046617A1",
  "about": "“METHOD FOR PROMOTING EXPANSION OF HEMATOPOIETIC STEM CELLS AND AGENT FOR USE IN THE METHOD” (FARON PHARMACEUTICALS OY, priority 2020, published 2023)",
  "key": {"[1]": {"system": "ROS in human CD34+ BM cells (CD38-CD34+ gated)", "assay": "ROS production (oxidative burst) by DHR-123 and flow cytometry", "type": "cell-based", "conditions": "9-day liquid cultures, PMA activation, bone marrow derived HSCs", "protocol": "Human CD34^+BM cells were liquid cultured for nine days in StemSpan SFEM medium II (STEMCELL Technologies) containing human stem cell factor (100 ng/ml), FMS-like tyrosine kinase 3 ligand (100 ng/ml), and thrombopoietin (50 ng/ml) (all from Peprotech) with or without LJP-1586. After nine days, the cells were stained with anti-CD38 and anti-CD34 antibodies, washed using DMEM, centrifuged and resuspended in 100 μl DMEM. Then, ROS were detected by DHR-123 reagent (Molecular Probes). For this, DHR-123 was diluted in DMSO and kept as a 5 mM stock solution at −20° C. for single use. […] The cells were then incubated for 10 min at 37° C. and followed by activation with Phorbol 12-myristate 13-acetate (PMA) (Sigma-Aldrich. The stock solution of PMA was frozen at 1 mg/ml in DMSO, freshly thawed and diluted 500 times in order to add 12.5 μl to a final concentration of 200 ng/ml. After 20 min at 37° C., the cells were washed with PBS, resuspended and analyzed by flow cytometry. The red DHR123 turns to green after oxidation. CD38^− and CD34^+ positive cells were gated and fluorescence intensity of oxidized DHR-123 was measured from the filter channel 530 nm/30 nm using LSR Fortessa instrument (BD Biosciences) and analyzed by FlowJo software (Tree Star)."}, "[2]": {"system": "human umbilical CB-derived HSCs (CD34+CD38-)", "assay": "Liquid culture expansion of umbilical cord blood derived HSCs", "type": "cell-based", "protocol": "For human umbilical CB cells, an antibody-based EasySep kit was used to enrich CD34^+CB cells, which were subsequently stained with anti-CD38 and anti-CD34 antibodies. CD38^−CD34^+ cells were sorted using a FACSAria Ilu instrument (BD Biosciences) and then cultured in StemSpan SFEM medium II (STEMCELL Technologies) containing human stem cell factor (100 ng/ml), FMS-like tyrosine kinase 3 ligand (100 ng/ml), and thrombopoietin (50 ng/ml) (all from Peprotech). Cells were seeded at a density of 1×10^3 per ml. LJP-1586 was added immediately after plating when indicated. Cultures were maintained for 21 days, and half the medium was replaced by that containing the same cytokines and LJP-1586 on days 5, 8, 12, 15, and 18. CD34^+ cells from human umbilical CB were isolated via a two-step procedure using Ficoll-Plaque gradient centrifugation (Amersham Pharmacia Biotech, Uppsala, Sweden) and an EasySep Human Cord Blood CD34 Positive Selection Kit II (STEMCELL Technologies). For batch and single cell sorting of VAP-1^+ and VAP-1^− cells from CB we used a Sony SH800 cell sorter with class A2 Level II biosafety cabinet using 130 μm microfluidic sorting chips. This sorter applies low shear stress on cells allowing better survival during cell culture. CD34^+ cells were also sorted into VAP-1^+ and VAP-1^−HSCs (Lineage-CD34+CD38). From these, 100 VAP-1+ and VAP-1−HSCs were then cultured in StemSpan SFEM medium II (STEMCELL Technologies) containing human stem cell factor (100 ng/ml), FMS-like tyrosine kinase 3 ligand (100 ng/ml), and thrombopoietin (50 ng/ml) (all from Peprotech). LJP-1586 was added immediately after plating at a concentration of 1 μM. Cultures were maintained for 20 days. Fresh medium containing the same cytokines and LJP-1586 was added on days 5, 8, 10, 12, 15 and 18. The cells were analysed on days 10 and 15 for CD38−CD34+CD45RA−CD90+ expression using LSR Fortessa instrument (BD Biosciences). Alternatively, a VAP-1 inhibitor szTU73 was used in CB cultures at concentrations 1, 5 and 10 micromolar."}, "[3]": {"system": "human BM-derived CD34+ cells", "assay": "CFU assay of human BM-derived CD34+ cells with replating", "type": "cell-based", "conditions": "LJP-1586 0.5 μM", "protocol": "(§1) The progeny of 900 CD38^−CD34^+ cells collected from 15-day-old in vitro cultures, obtained as described above, were grown in methylcellulose-based medium (H4436, STEMCELL Technologies) containing or lacking LJP-1586. After 14 days, single, multilineage, and mixed colonies were visually scored by microscopy. Cryopreserved human CD34^+ cells from AllCells were thawed, resuspended, and counted according to the manufacturer's protocol. Five hundred thawed human BM CD34^+ cells were cultured in complete methylcellulose-based medium (H4436, STEMCELL Technologies) containning or lacking LJP-1586. The total number of colonies was counted at 14 days after plating. Replating was performed twice by harvesting and dissociating cells under sterile conditions."}, "CB-derived HSCs": {"system": "CB-derived HSCs", "assay": "CFU assay of CB-derived cells expanded in liquid culture", "type": "cell-based, human", "conditions": "after 15 days liquid culture with LJP-1586 (0.5 μM), then CFU assay with LJP-1586", "protocol": "as §1"}, "[4]": {"system": "human CD45+ cells engraftment in the BM of NBSGW mice", "assay": "In vivo engraftment of sorted human BM cells in non-irradiated NBSGW mice", "conditions": "VAP-1+ cells in the transfer pool; inhibitor 10 mg/kg i.p. three times a week for six weeks; cut-off 0.1% human CD45+", "description": "Human fresh frozen BM CD34+ cells (LONZA) were thawed and stained with APC conjugated mouse anti-Lineage cocktail, PE-Cy7-conjugated anti-CD34 and FITC-conjugated monoclonal antibodies 1B2, TK8-14, and JG-2 against different epitopes of human VAP-1. For batch cell sorting of VAP-1^+/lo and VAP-1^− cells we used a Sony SH800 cell sorter with class A2 Level II biosafety cabinet using 130 μm microfluidic sorting chips. The NBSGW (immune-deficient, c-Kit-deficient) mice not needing irradiation to accept human cells were used as […]. In the VAP-1^− group 19000 cells and in the VAP-1−+VAP-1^+/lo group 16250 VAP-1^− cells and 2750 VAP-1^+/lo cells were intravenously injected per animal. […] Samples were run on LSR fortessa and the data was analyzed with FlowJo. Percentage of chimerism [% chimerism=(% test donor-derived cells)×100/((% test donor-derived cells+(% competitor-derived cells))] was calculated as described (Ema et al., “Adult mouse hematopoietic stem cells: purification and single-cell assays”, Nat Protoc 2006 1(6), 2979-2987)."}},
  "data": [
    {"smiles": "COc1ccc(C/C(=C/F)CN)cc1.Cl", "note": "[LJP-1586, Z-3-fluoro-2-(4-methoxybenzyl)allylamine hydrochloride]", "values": [
      {"measurement": "ROS reduction (MFI) compared to control cells", "setting": "[1]", "result": 62, "unit": "%"},
      {"measurement": "number of primitive HSCs (CD34+CD38-CD45RA-CD90+CD49f+) compared to non-treated cultures", "setting": "[2]; 1 μM, 15 days, average of three donors", "result": 11, "unit": "times"},
      {"measurement": "HSC expansion compared to control cells", "setting": "[2]; 1 μM, grown for 18 days", "result": "more than 31 times"},
      {"measurement": "share of HSCs in gate P-3 that were primitive HSCs", "setting": "[2]; CD34+CD38-CD45RA-CD90+CD49f+", "result": "More than 12%"},
      {"measurement": "expansion of VAP-1+ HSCs in long term liquid cultures", "setting": "[2]; day 20, 1 μM", "result": "boosted their expansion"},
      {"measurement": "expansion of HSCs at other concentrations", "setting": "[2]; higher or lower concentrations than 1 μM", "result": "less efficient"},
      {"measurement": "number of CFUs higher than control cultures after re-plating", "setting": "[3]; after dissociating and re-plating twice", "result": 92, "unit": "%"},
      {"measurement": "number of CFUs higher than control cultures", "setting": "[3]; first plating, 500 BM CD34+ cells", "result": 33, "unit": "%"},
      {"measurement": "number of CFUs compared to control cultures", "setting": "CB-derived HSCs", "result": 7.9, "unit": "times"},
      {"measurement": "mice that accepted the human BM engraftment", "setting": "[4]", "result": "3/3"}
    ]}
  ]
}
